Patent publication US11596639B2, “Substituted indole Mcl-1 inhibitors” (Vanderbilt University, priority 2016, dated 2023)
Like-named read-outs stand apart in the source and are kept apart here.

Key:
Mcl-1 = Mcl-1 (Homo sapiens (Human), UniProt Q07820); assay: TR-FRET binding assay, FITC-Bak peptide and MBP-tagged Mcl-1; details: read-out: Ki for Inhibition of Mcl-1 by TR-FRET assay
Protocol: Compounds are diluted in DMSO in a 16-point, semilog serial dilution scheme. […] The plate was mixed and incubated for 3 hours at room temperature. […] TR-FRET signal is plotted and IC50 and Ki values are calculated in the same manner as the fluorescence polarization anisotropy based competition assays.

[1] = test system: H929 human cancer cell lines; assay: Cellular viability / proliferation (Cell TiterGlo, 72 h); type: cell-based
How it was run: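 H929 cells plated at 1,000/well in 10% FBS medium received a 2-fold serial compound dilution (top 50 μM, DMSO <1%) 24 h later. After 72 h, viability was read by CellTiter-Glo luminescence. IC50 came from a four-parameter fit.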

[2] = Homo sapiens, NCI-H929, 72 h, read-out: GI50 on cellular proliferation of H929 human cancer cell lines, H929 cells, 72 h, Cell TiterGlo, 10% FBS
[3] = read-out: GI50 on cellular proliferation of H929 human cancer cell lines, H929 cells, 72 h, Cell TiterGlo, 10% FBS

Mcl-1, sequence (Q07820 172-327): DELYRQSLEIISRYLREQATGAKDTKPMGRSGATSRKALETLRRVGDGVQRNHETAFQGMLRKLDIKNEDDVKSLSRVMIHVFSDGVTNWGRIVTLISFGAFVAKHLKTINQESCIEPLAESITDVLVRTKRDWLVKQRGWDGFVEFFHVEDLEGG

| SMILES | Ki (Mcl-1) | GI50 [1, 2] | GI50 [1, 3] | GI50 ([1]; H929 cells, 72 h, Cell TiterGlo, 10% FBS, read-out: GI50 on cellular proliferation of H929 human cancer cell lines) |
| --- | --- | --- | --- | --- |
| COCCOc1cc(N2C[C@@H](C)n3c(c(CCCOc4cc(C)c(Cl)c(C)c4)c4ccc(Cl)c(-c5c(C)nn(C)c5C)c43)C2=O)c2c(c1)cc(C(=O)O)n2Cc1ccccn1 [Example 537, (R)-7-(7-Chloro-10-(3-(4-chloro-3,5-dimethylphenoxy)propyl)-4-methyl-1-oxo-6-(1,3,5-trimethyl-1H-pyrazol-4-yl)-3,4-dihydropyrazino[1,2-a]indol-2(1H)-yl)-5-(2-methoxyethoxy)-1-(pyridin-2-ylmethyl)-1H-indole-2-carboxylic acid] | < 0.2 nM | < 200 nM |  |  |
| COCCn1c(C(=O)O)cc2cc(OC)cc(N3C[C@@H](C)n4c(c(CCCOc5cc(C)c(Cl)c(C)c5)c5ccc(Cl)c(-c6c(C)ncnc6C)c54)C3=O)c21 [Example 660, (R)-7-(7-chloro-10-(3-(4-chloro-3,5-dimethylphenoxy)propyl)-6-(4,6-dimethylpyrimidin-5-yl)-4-methyl-1-oxo-3,4-dihydropyrazino[1,2-a]indol-2(1H)-yl)-5-methoxy-1-(2-methoxyethyl)-1H-indole-2-carboxylic acid] | < 0.2 nM | 330 nM |  |  |
| COc1ccc(N2C[C@@H](C)n3c(c(CCCOc4cc(C)c(Cl)c(C)c4)c4ccc(Cl)c(-c5c(C)nc(CN(C)C)nc5C)c43)C2=O)c2c1cc(C(=O)O)n2Cc1ccccn1 [Example 482, (R)-7-(7-Chloro-10-(3-(4-chloro-3,5-dimethylphenoxy)propyl)-6-(2-((dimethylamino)methyl)-4,6-dimethylpyrimidin-5-yl)-4-methyl-1-oxo-3,4-dihydropyrazino[1,2-a]indol-2(1H)-yl)-4-methoxy-1-(pyridin-2-ylmethyl)-1H-indole-2-carboxylic acid] | < 0.2 nM | 340 nM |  |  |
| COCCn1cc(C(=O)O)c2cc(OC)cc(N3C[C@@H](C)n4c(c(CCCOc5cc(C)c(Cl)c(C)c5)c5ccc(Cl)c(-c6c(C)nn(C)c6C)c54)C3=O)c21 (single isomer, unassigned) [Example 672] | 0.43 nM |  | 840 nM |  |
| Cc1cc(OCCCc2c3n(c4c(-c5c(C)nn(C)c5C)c(Cl)ccc24)[C@H](C)CN(c2cn(CC(=O)N4CCCC4)c4ccc(-c5ncn(C)n5)cc24)C3=O)cc(C)c1Cl [Example 527, (R)-7-Chloro-10-(3-(4-chloro-3,5-dimethylphenoxy)propyl)-4-methyl-2-(5-(1-methyl-1H-1,2,4-triazol-3-yl)-1-(2-oxo-2-(pyrrolidin-1-yl)ethyl)-1H-indol-3-yl)-6-(1,3,5-trimethyl-1H-pyrazol-4-yl)-3,4-dihydropyrazino[1,2-a]indol-1(2H)-one] | 0.36 nM | 260 nM |  |  |
| Cc1cc(N2C[C@@H](C)n3c(c(CCCOc4cc(C)c(Cl)c(C)c4)c4ccc(Cl)c(-c5c(C)nn(C)c5C)c43)C2=O)c2c(c1)cc(C(=O)O)n2Cc1cc(N2CCN(C)CC2)ccn1 [Example 515, (R)-7-(7-Chloro-10-(3-(4-chloro-3,5-dimethylphenoxy)propyl)-4-methyl-1-oxo-6-(1,3,5-trimethyl-1H-pyrazol-4-yl)-3,4-dihydropyrazino[1,2-a]indol-2(1H)-yl)-5-methyl-1-((4-(4-methylpiperazin-1-yl)pyridin-2-yl)methyl)-1H-indole-2-carboxylic acid] | < 0.2 nM | 610 nM |  |  |
| Cc1cc(N2C[C@@H](C)n3c(c(CCCOc4cc(C)c(Cl)c(C)c4)c4ccc(Cl)c(-c5c(C)nn(C)c5C)c43)C2=O)c2c(c1)cc(C(=O)O)n2Cc1cccc(C#N)n1 [Example 557, (R)-7-(7-chloro-10-(3-(4-chloro-3,5-dimethylphenoxy)propyl)-4-methyl-1-oxo-6-(1,3,5-trimethyl-1H-pyrazol-4-yl)-3,4-dihydropyrazino[1,2-a]indol-2(1H)-yl)-1-((6-cyanopyridin-2-yl)methyl)-5-methyl-1H-indole-2-carboxylic acid] | < 0.2 nM | 820 nM |  |  |
| Cc1cc(OCCCc2c3n(c4c(-c5c(C)nn(C)c5C)c(Cl)ccc24)[C@H](C)CN(c2cn(C)c4ccc(-n5nnnc5C)nc24)C3=O)cc(C)c1Cl [Example 679, (R)-7-Chloro-10-(3-(4-chloro-3,5-dimethylphenoxy)propyl)-4-methyl-2-(1-methyl-5-(5-methyl-JH-tetrazol-1-yl)-1H-pyrrolo[3,2-b]pyridin-3-yl)-6-(1,3,5-trimethyl-1H-pyrazol-4-yl)-3,4-dihydropyrazino[1,2-a]indol-1(2H)-one] | 3.1 nM |  |  | 940 nM |
| COc1ccc(N2C[C@@H](C)n3c(c(CCCOc4cc(C)c(Cl)c(C)c4)c4ccc(Cl)c(-c5c(C)nn(C)c5C)c43)C2=O)c2c1cc(C(=O)O)n2Cc1cccc(C)n1 [Example 593, (R)-7-(7-chloro-10-(3-(4-chloro-3,5-dimethylphenoxy)propyl)-4-methyl-1-oxo-6-(1,3,5-trimethyl-1H-pyrazol-4-yl)-3,4-dihydropyrazino[1,2-a]indol-2(1H)-yl)-4-methoxy-1-((6-methylpyridin-2-yl)methyl)-1H-indole-2-carboxylic acid] | < 0.2 nM | < 200 nM |  |  |
| Cc1cc(OCCCc2c3n(c4c(-c5c(C)nn(C)c5C)c(Cl)ccc24)[C@H](C)CN(c2cc(CN4CCN(C)C(=O)C4)cc4cc(C(=O)O)n(C)c24)C3=O)cc(C)c1Cl [Example 628, (R)-7-(7-chloro-10-(3-(4-chloro-3,5-dimethylphenoxy)propyl)-4-methyl-1-oxo-6-(1,3,5-trimethyl-1H-pyrazol-4-yl)-3,4-dihydropyrazino[1,2-a]indol-2(1H)-yl)-1-methyl-5-((4-methyl-3-oxopiperazin-1-yl)methyl)-1H-indole-2-carboxylic acid] | < 0.2 nM | 440 nM |  |  |
| Cc1cc(OCCCc2c3n(c4c(-c5c(C)nn(C)c5C)c(Cl)ccc24)[C@H](C)CN(c2cn(CCN4CCN(C)CC4)c4ccc(C(=O)O)cc24)C3=O)cc(C)c1Cl [Example 569, (R)-3-(7-chloro-10-(3-(4-chloro-3,5-dimethylphenoxy)propyl)-4-methyl-1-oxo-6-(1,3,5-trimethyl-1H-pyrazol-4-yl)-3,4-dihydropyrazino[1,2-a]indol-2(1H)-yl)-1-(2-(4-methylpiperazin-1-yl)ethyl)-1H-indole-5-carboxylic acid] | 0.49 nM | 470 nM |  |  |
| Cc1cc(OCCCc2c3n(c4c(-c5c(C)nn(C)c5C)c(Cl)ccc24)[C@H](C)CN(c2cn(Cc4ccncc4)c4ccc(C(=O)O)cc24)C3=O)cc(C)c1Cl [Example 555, (R)-3-(7-chloro-10-(3-(4-chloro-3,5-dimethylphenoxy)propyl)-4-methyl-1-oxo-6-(1,3,5-trimethyl-1H-pyrazol-4-yl)-3,4-dihydropyrazino[1,2-a]indol-2(1H)-yl)-1-(pyridin-4-ylmethyl)-1H-indole-5-carboxylic acid] | 0.26 nM | 1300 nM |  |  |
| Cc1ccnc(Cn2cc(C(=O)O)c3cccc(N4C[C@@H](C)n5c(c(CCCOc6cc(C)c(Cl)c(C)c6)c6ccc(Cl)c(-c7c(C)nn(C)c7C)c65)C4=O)c32)c1 [Example 484, (R)-7-(7-Chloro-10-(3-(4-chloro-3,5-dimethylphenoxy)propyl)-4-methyl-1-oxo-6-(1,3,5-trimethyl-1H-pyrazol-4-yl)-3,4-dihydropyrazino[1,2-a]indol-2(1H)-yl)-1-((4-methylpyridin-2-yl)methyl)-1H-indole-3-carboxylic acid] | < 0.2 nM |  | 310 nM |  |
| COCCn1cc(N2C[C@@H](C)n3c(c(CCCOc4cc(C)c(Cl)c(C)c4)c4ccc(Cl)c(-c5c(C)nn(C)c5C)c43)C2=O)c2cc(-c3ncn(C)n3)ccc21 [Example 524, (R)-7-Chloro-10-(3-(4-chloro-3,5-dimethylphenoxy)propyl)-2-(1-(2-methoxyethyl)-5-(1-methyl-1H-1,2,4-triazol-3-yl)-1H-indol-3-yl)-4-methyl-6-(1,3,5-trimethyl-1H-pyrazol-4-yl)-3,4-dihydropyrazino[1,2-a]indol-1(2H)-one] | 0.28 nM | 220 nM |  |  |
| Cc1cc(OCCCc2c3n(c4c(-c5c(C)nn(C)c5C)c(Cl)ccc24)[C@H](C)CN(c2cc(CCN4CCN(C)CC4)cc4cc(C(=O)O)n(C)c24)C3=O)cc(C)c1Cl [Example 725, (R)-7-(7-chloro-10-(3-(4-chloro-3,5-dimethylphenoxy)propyl)-4-methyl-1-oxo-6-(1,3,5-trimethyl-1H-pyrazol-4-yl)-3,4-dihydropyrazino[1,2-a]indol-2(1H)-yl)-1-methyl-5-(2-(4-methylpiperazin-1-yl)ethyl)-1H-indole-2-carboxylic acid] | < 0.2 nM | < 200 nM |  |  |
| Cc1cc(N2C[C@@H](C)n3c(c(CCCOc4cc(C)c(Cl)c(C)c4)c4ccc(Cl)c(-c5c(C)nn(C)c5C)c43)C2=O)c2c(c1)cc(C(=O)O)n2CCOC(C)C [Example 578, (R)-7-(7-chloro-10-(3-(4-chloro-3,5-dimethylphenoxy)propyl)-4-methyl-1-oxo-6-(1,3,5-trimethyl-1H-pyrazol-4-yl)-3,4-dihydropyrazino[1,2-a]indol-2(1H)-yl)-1-(2-isopropoxyethyl)-5-methyl-1H-indole-2-carboxylic acid] | < 0.2 nM | 390 nM |  |  |
| Cc1cc(OCCCc2c3n(c4c(-c5c(C)nn(C)c5C)c(Cl)ccc24)[C@H](C)CN(c2cn(C)c4ncc(C(=O)O)nc24)C3=O)cc(C)c1Cl [Example 585, (R)-7-(7-chloro-10-(3-(4-chloro-3,5-dimethylphenoxy)propyl)-4-methyl-1-oxo-6-(1,3,5-trimethyl-1H-pyrazol-4-yl)-3,4-dihydropyrazino[1,2-a]indol-2(1H)-yl)-5-methyl-5H-pyrrolo[2,3-b]pyrazine-2-carboxylic acid] | < 0.2 nM | 1500 nM |  |  |
